Measurements reported in patent EP1500662A2, “Stabilizing peptides” (CORNELL RESEARCH FOUNDATION, INC., priority 2003, dated 2005).

Columns and labels:
Assay type in all cases: cell-based
[1] = tested on: HIV-1 NL4-3
Experimental: (§1) PBMC Infectivity Assay. PBMC were isolated from healthy blood donors by Ficoll-Hypaque centrifugation and then stimulated for 2-3 days with phytohemagglutinin (5 µg/ml) and interleukin-2 (100 U/ml). The inhibition assay was performed essentially as described previously (Trkola, A., T. Ketas, V. N. KewalRamani, F. Endorf, J. M. Binley, H. Katinger, J. Robinson, D. R. Littman, and J. P. Moore. 1998. Neutralization sensitivity of human immunodeficiency virus type 1 primary isolates to antibodies and CD4-based reagents is independent of co-receptor usage. J. Virol. 72:1876-1885; Trkola, A., W. A. Paxton, S. P. Monard, J. A. Hoxie, M. A. Siani, D. A. Thompson, L. Wu, C. R. Mackay, R. Horuk, and J. P. Moore. 1998. Genetic subtype-independent inhibition of human immunodeficiency virus type 1 replication by CC and CXC chemokines. J. Virol. 72:396-404).
(§2) Briefly, the virus inoculum was adjusted to 400-1,000 TCID50/ml in assay medium (RPMI 1640, 10% FCS, 100 U of interleukin-2 per ml, glutamine, and peptides), and 50 µl aliquots were incubated with serial dilutions of the peptide inhibitors (50 µl) for 1 h at 37 °C. […] RBMC (4 x 10^5 in 100 µl of medium) were then added. The final concentration of virus in the cultures was 20-50 TCID50/well, corresponding to 100-250 TCID50/ml. […] The viral inocula in 50% tissue culture infectious doses (TCID50) were 400-1000/ml.

[2] = tested on: HIV-1 JFRL
Experimental: as §1, §2

[3] = tested on: HIV-1 Case C 7/86
Experimental: as §1, §2

[4] = tested on: HIV-1 DJ258
Experimental: as §1, §2

[5] = tested on: HIV-1 UG270
Experimental: as §1, §2

[6] = tested on: HIV-1 CM.235
Experimental: as §1, §2

[7] = tested on: HIV-1 94ZW103
Experimental: as §1, §2

Substance: Enfuvirtide
- IC50 [1]: 35 nM
- IC50 [2]: 9 nM
- IC50 [3]: 4 nM
- IC50 [4]: 83 nM
- IC50 [5]: 257 nM
- IC50 [6]: 79 nM
- IC50 [7]: 13 nM
